In US5274080A, “Monospecific antibodies useful in evaluating inhibition of polymorphonuclear leukocyte elastase by N-substituted azetidinones” (Merck & Co., Inc., priority 1991, dated 1993):

Test system: antibody R674
Test: Radioimmune assay: displacement of tritium labeled reactivation product from antibody R674
Format: binding, rabbit
Settings: up to 10 μM (the highest concentration tested)
Method: Non-antibody-bound radioactive isotope was removed from the reaction mixture by its absorption onto dextran-coated activated charcoal. […] The activated charcoal was then suspended to 3% (w/v) in PBS dextran and allowed to stand overnight, washed once again in PBS dextran and resuspended to 3% (w/v) in PBS dextran and stored at 4° C. Immediately before use in the assay, the dextran-coated activated charcoal was diluted 10-fold in DULBECCO's PBS and 1 ml was added to each assay tube. […] The supernatant fluid was decanted into 9 ml of AQUASOL-2 scintillation fluid and radioactivity counted in a beta-counter. Each assay contains charcoal free controls, to which 1 ml PBS was added, for determination of total counts (BO), and antibody free controls for determination of non-specific binding. Percent specific binding was determined by subtracting the value for non-specific binding from the value of total antiserum binding and then dividing by the total radioactivity added.
Sensitivity of the antisera R674 (2nd bleed) was determined in the above RIA. The antiserum was diluted in PET/GEL buffer (1:12,000 final dilution in the 200 μl assay volume) as described above so that it binds 20-30% of the total radioactivity added. The same diluted stock was then used for all assay tubes within the same assay. […] The assay was set up on a competition basis. […]

**Q.** For `NC(N)=O` [Urea], which effect on displacement is on record?
**A.** The effect on displacement was “without effect”.

**Q.** `N=C(N)NCCC[C@H](N)C(=O)O` [arginine] was tested. Which effect on displacement did it give?
**A.** Its effect on displacement is “without effect”.
